Earlier results, collected in US9139604B2, “Antiviral phosphonate analogs” (Gilead Sciences, Inc., priority 2003, dated 2015).

System: HIV
Conditions: described in the literature; kind of value (EC50/IC50) not stated

Nc1nc(=O)c2ncn([C@@H]3C[C@H](CO)[C@H]3CO)c2[nH]1 [lubocavir]
anti-HIV activity: 30 µM
